Counter-ions that a name gives are not always drawn.
Key:
[1] = tested on: prototrophic yeast strain (CEN.PK113-7D); experiment: Propidium iodide fluorescence-based CLS method in yeast (incl. high-throughput screening); assay type: cell-based, Saccharomyces cerevisiae; conditions: concentration tested 100 μM; for Yeast CLS increase: Yes/No call of the screen; for PI intensity: solvent DMSO or water, chronological age point Day 7 (72 h growth = Day 1), lower = more survival;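 on PI intensity: untreated reference is eight DMSO and water control wells per plate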
Description: Yeast strain was recovered from frozen glycerol stock at 30° C. on YPD agar medium. Yeast was left to propagate in SD medium overnight at 30° C. with shaking at 220 revolutions per minute (rpm). Cells propagated overnight were diluted to a starting optical density at 600 nm (OD600) of approximately 0.2 in fresh SD medium to begin the chronological lifespan (CLS) experiments.
(§1) CLS experiments were performed in 96-well plates with 200 μL yeast culture. Cellular inoculums were transferred into 96-well plates containing serially double-diluted concentrations (0 to 10 nM) of rapamycin. Cellular inoculum was transferred into 96-well plates containing serially double-diluted concentrations (0 to 8 mM) of 2,5-anhydro-D-mannitol, D-fructose, D-mannitol, D-maltose, and D-sorbitol in SD medium. Cells were incubated at 30° C., and the growth was measured at different time points. […] Cell survival was quantified at various age time points by three different approaches: (i) PI fluorescence-based method, (ii) outgrowth in YPD liquid medium, and (iii) spotting assay (FIG. 1).
Yeast cells (40 μL) from different age time points were transferred into a second 96-well plate (different to the 96-well plate in which the CLS analysis as outlined above was performed). Cells were washed and incubated in 100 μL 1×phosphate buffered saline (PBS) with propidium iodide (PI) (5 μg/mL) for 15 minutes in the dark. Positive and negative control samples were included for quantitative analysis. Positive control (cells boiled at 100° C. for 15 minutes) was PI-stained and processed in the same 96-well plate. Samples without PI-stained cells served as the negative control. After incubation, cells were washed and resuspended in 100 μL PBS. The fluorescence reading of the samples (excitation and emission wavelengths at 535 nm and 617 nm, respectively) and OD600 were measured with a microplate reader (BioTek, Winooski, Vermont, United States). The fluorescence intensity of each sample was normalized with OD600. The background fluorescence signal of the unstained negative sample was subtracted from the normalized fluorescence intensity of each sample. The obtained fluorescence intensity of the positive control (boiled dead cells) was considered 0% cell survival. Cell death was validated by allowing the boiled dead cells to grow in medium. Cell survival at different age time points of samples were calculated by normalizing the fluorescence intensity with positive control sample (boiled cells).
High-throughput screening of various chemicals was tested using the same protocol for the propidium iodide fluorescence-based method as described above. The prototrophic yeast strain (CEN.PK113-7D) was grown in the synthetic defined medium with different chemical reagents at their respective single testing concentration (Table 1) in addition to eight replicates of DMSO and water controls in 96-well plates at 30° C.

[2] = tested on: prototrophic yeast strain (CEN.PK113-7D); experiment: Yeast outgrowth in YPD liquid medium (CLS of aged cells); assay type: cell-based, Saccharomyces cerevisiae; conditions: concentration tested 100 μM; OD600 nm after 24 h in YPD at 30° C.; age point day 14
Description: as §1
Outgrowth (OD600) of aged cells was measured by the microplate reader. Quantification of cell survival for each age point was determined as relative to Day 1 (considered 100% cell survival). This quantification was performed by using the formula,
[formula] • where OutgrowthDay n refers to the OD600 nm absorbance reading recorded on a specific day, OutgrowthDay 1 refers to the OD600 nm absorbance reading recorded on the first day where 100% cell survival is assumed.
The CLS of the aged cells was further determined by the yeast outgrowth in YPD liquid medium method as described above. […] At chronological age point day 14, 3-μL of culture were transferred to a second 96-well plate containing 200 μL YPD medium.

Structure (SMILES)	Yeast CLS increase [1]	PI intensity [1]	Outgrowth [2]
COc1ccc(C=CC(=O)O)cc1 [4-Methoxycinnamic acid]	No	89,890.5	0.1
Cc1cc(=O)oc2cc(O)ccc12 [4-Methylumbelliferone]	No	90,234.6	0.1
CC(=O)c1ccc(O)c(C(=O)O)c1 [5-Acetylsalicylic acid]	No	63,538.6	0.1
CC(C)CCC[C@@H](C)[C@H]1CC[C@H]2[C@@H]3CC[C@H]4CC(=O)CC[C@]4(C)[C@H]3CC[C@]12C [5α-Cholestan-3-one]	No	62,022.6	0.1
C[C@H](O)[C@H](O)c1cnc2nc(N)[nH]c(=O)c2n1 [6-Biopterin]	No	75,974.5	0.1
CC(C)CCC[C@](C)(O)[C@H]1CC[C@H]2[C@@H]3CC=C4C[C@@H](O)CC[C@]4(C)[C@H]3CC[C@@]21C [20(S)-Hydroxycholesterol]	No	75,450.9	0.1
NC[C@H](CC(=O)O)c1ccc(Cl)cc1 [(R)-Baclofen, reference compound]	No	61,049.3	0.1
CC(C)=CCC[C@@H](C)CCO [(R)-Citronellol]	No	75,290.6	0.1
O=C(O)[C@H]1CCCN1 [(R)-pyrrolidine-2-carboxylic acid]	No	80,551.7	0.1
O=C(O)[C@@H](O)Cc1ccccc1 [(S)-2-Hydroxy-3-phenylpropanoic acid]	No	72,969.5	0.1
Cn1cc(C[C@H](N)C(=O)O)c2ccccc21 [(S)-Indoximod]	No	78,648.2	0.1
Oc1cc(O)c2c(c1)O[C@H](c1cc(O)c(O)c(O)c1)[C@H](O)C2 [(−)-Epigallocatechin]	No	62,025.6	0.1
N[C@H](C(=O)O)[C@@H]1CC(Cl)=NO1 [Acivicin]	Yes	41,066.2	1.0
CCCCC[C@H](CC(=O)NO)C(=O)N[C@H](C(=O)N1CCC[C@H]1CO)C(C)C [Actinonin]	No	75,254.2	0.1
COCCCOc1cc(C[C@@H](C[C@H](N)[C@@H](O)C[C@H](C(=O)NCC(C)(C)C(N)=O)C(C)C)C(C)C)ccc1OC.COCCCOc1cc(C[C@@H](C[C@H](N)[C@@H](O)C[C@H](C(=O)NCC(C)(C)C(N)=O)C(C)C)C(C)C)ccc1OC.O=C(O)/C=C/C(=O)O [Aliskiren (hemiumarate), reference compound]	No	73,607.3	0.1
O=C1c2c(O)cccc2[C@@H]([C@@H]2O[C@H](CO)[C@@H](O)[C@H](O)[C@H]2O)c2cc(CO)cc(O)c21 [Aloin B]	No	89,712.0	0.1
Nc1c(Br)cc(Br)cc1CN[C@H]1CC[C@H](O)CC1 [Ambroxol (hydrochloride), reference compound]	No	63,509.0	0.1

Structure (SMILES)	Yeast CLS increase [1]	PI intensity [1]	Outgrowth [2]
NCCCNCCSP(=O)(O)O [Amifostine, reference compound]	No	69,013.2	0.2
O=C(O)c1ccc2c(c1)C(=O)c1ccccc1C2=O [Anthraquinone-2-carboxylic acid]	No	96,099.2	0.1
OCC1=C[C@@H](O)[C@@H]2C=CO[C@@H](O[C@@H]3O[C@H](CO)[C@@H](O)[C@H](O)[C@H]3O)[C@H]12 [Aucubin]	No	58,414.0	0.1
NC(=O)[C@@H]1CC[C@@H]2CN1C(=O)N2OS(=O)(=O)O [Avibactam (sodium), reference compound]	No	73,562.3	0.1
O=c1c(O[C@@H]2O[C@H](CO)[C@@H](O)[C@H](O)[C@H]2O[C@@H]2O[C@H](CO)[C@@H](O)[C@H](O)[C@H]2O)c(-c2ccc(O)c(O)c2)oc2cc(O)cc(O)c12 [Baimaside]	No	61,895.7	0.2
CC(=O)OCc1ccccc1 [Benzyl acetate]	No	74,321.9	0.1
C[C@@H](O)[C@H]1C(=O)N2C(C(=O)[O-])=C(SC3Cn4cnc[n+]4C3)[C@H](C)[C@H]12 (stereo partly drawn) [Biapenem, reference compound]	No	71,409.3	0.1
OC(CCN1CCCCC1)(c1ccccc1)C1CC2C=CC1C2 (stereo not drawn) [Biperiden (Hydrochloride), reference compound]	No	67,178.1	0.2
O=[N+]([O-])C(Br)(CO)CO [Bronopol]	No	79,284.9	0.1
C=C1CC[C@H](O)C/C1=C/C=C1\CCC[C@]2(C)[C@@H]([C@H](C)CCCC(C)(C)O)CC[C@@H]12 [Calcifediol, reference compound]	No	60,747.4	0.2
CSCCNc1nc(SCCC(F)(F)F)nc2c1ncn2[C@@H]1O[C@H](COP(=O)([O-])OP(=O)([O-])C(Cl)(Cl)P(=O)([O-])[O-])[C@@H](O)[C@H]1O.[Na+].[Na+].[Na+].[Na+] [Cangrelor (tetrasodium), reference compound]	No	83,173.6	0.1
C[C@]12CCC(=O)C=C1C=C[C@@H]1[C@@H]2CC[C@@]2(C)[C@H]1CC[C@@]21CCC(=O)O1 [Canrenone, reference compound]	No	64,295.2	0.1
CC1=C(C(=O)O)N2C(=O)[C@@H](NC(=O)[C@H](N)c3ccc(O)cc3)[C@H]2SC1 [Cefadroxil, reference compound]	No	70,326.1	0.1
CO/N=C(\C(=O)N[C@@H]1C(=O)N2C(C(=O)O)=C(Cn3ccc(=N)n3CCO)CS[C@H]12)c1csc(N)n1.O=S(=O)(O)O [Cefoselis (sulfate), reference compound]	No	70,425.6	0.1
COCc1c(C(C)C)nc(C(C)C)c(/C=C/[C@@H](O)C[C@@H](O)CC(=O)[O-])c1-c1ccc(F)cc1.[Na+] [Cerivastatin (sodium), reference compound]	No	64,250.5	0.1
O=C(/C=C/c1ccc(O)c(O)c1)O[C@@H]1C[C@](O)(C(=O)O)C[C@@H](O)[C@H]1O [Chlorogenic acid]	No	66,593.5	0.1

— patent publication US20250161338A1, “Compounds for Anti-aging Intervention” (AGENCY FOR SCIENCE, TECHNOLOGY AND RESEARCH, priority 2022, published 2025)
